Reference: patent US8987253B2, “Compound having activity of blocking NMDA receptor channel, and pharmaceutical agent using the same” (National University Corporation Chiba University, priority 2006, dated 2015)
Read-outs that look alike come from different tables or passages of the source.

How the values were obtained:
Cytotoxicity = format: cell-based
NR1/NR2A = NR1/NR2A (Homo sapiens, UniProt Q05586+Q12879); assay: Channel blocking activity on NMDA receptors (NR1/NR2A) expressed on Xenopus oocytes, two electrode voltage clamp; settings: for voltage dependence of channel blocking activity: membrane potential changed from −150 mV to +10 mV
NR2B mutant N616Q = NR2B mutant N616Q (Homo sapiens, UniProt Q05586+Q13224, N616Q); assay: Channel blocking activity on NMDA receptor mutant NR2B N616Q expressed in eggs; format: cell-based; settings: FIG. 3
From the text: (§1) Site-directed mutagenesis was utilized to construct NMDA receptor mutants with amino acid substitutions. The NMDA receptor mutants were expressed in eggs in the same method as shown in Example 1 to investigate for channel blocking activity of AQ444. […] Other relevant amino acid residues on the NMDA receptors are shown in FIG. 4 together with their models.

NR2B mutant N615Q = NR2B mutant N615Q (Homo sapiens, UniProt Q05586+Q13224, N615Q); assay: Channel blocking activity on NMDA receptor mutant NR2B N615Q expressed in eggs; format: cell-based; settings: FIG. 3
From the text: as §1

NR1/NR2C = NR1/NR2C (Homo sapiens, UniProt Q05586+Q14957); assay: Reactivity with NMDA receptor subtype NR1/NR2C expressed on Xenopus oocytes; format: cell-based; settings: AQ444 0.1 to 30 μM, FIG. 2
Description: (§2) AQ444 was added to the perfusion solution to get a final concentration of 0.1 to 30 μM. […] Further, the intensities in channel blocking activity against the receptors were in the order of NR1/NR2A=NR1/NR2B=NR1/NR2D>>NR1/NR2C.

NR1/NR2B = NR1/NR2B (Homo sapiens, UniProt Q05586+Q13224); assay: Reactivity with NMDA receptor subtype NR1/NR2B expressed on Xenopus oocytes; format: cell-based; settings: AQ444 0.1 to 30 μM, FIG. 2
Description: as §2

NR1 mutant N616Q = assay: Channel blocking activity on NMDA receptor mutant NR1 N616Q expressed in eggs; format: cell-based; settings: FIG. 3
From the text: as §1

NR1 mutant N616R = assay: Channel blocking activity on NMDA receptor mutant NR1 N616R expressed in eggs; format: cell-based; settings: FIG. 3
From the text: as §1

NR1/NR2D = NR1/NR2D (Homo sapiens, UniProt O15399+Q05586); assay: Reactivity with NMDA receptor subtype NR1/NR2D expressed on Xenopus oocytes; format: cell-based; settings: AQ444 0.1 to 30 μM, FIG. 2
Description: as §2

[1] = read-out: 50% inhibition concentration (IC50) of channel blocking activity, membrane potential clamp at −70 mV, 10 μM glycine and 10 μM glutamic acid, Xenopus oocytes

Sequence of NR1/NR2A (Q12879 23-1464, other chains not shown): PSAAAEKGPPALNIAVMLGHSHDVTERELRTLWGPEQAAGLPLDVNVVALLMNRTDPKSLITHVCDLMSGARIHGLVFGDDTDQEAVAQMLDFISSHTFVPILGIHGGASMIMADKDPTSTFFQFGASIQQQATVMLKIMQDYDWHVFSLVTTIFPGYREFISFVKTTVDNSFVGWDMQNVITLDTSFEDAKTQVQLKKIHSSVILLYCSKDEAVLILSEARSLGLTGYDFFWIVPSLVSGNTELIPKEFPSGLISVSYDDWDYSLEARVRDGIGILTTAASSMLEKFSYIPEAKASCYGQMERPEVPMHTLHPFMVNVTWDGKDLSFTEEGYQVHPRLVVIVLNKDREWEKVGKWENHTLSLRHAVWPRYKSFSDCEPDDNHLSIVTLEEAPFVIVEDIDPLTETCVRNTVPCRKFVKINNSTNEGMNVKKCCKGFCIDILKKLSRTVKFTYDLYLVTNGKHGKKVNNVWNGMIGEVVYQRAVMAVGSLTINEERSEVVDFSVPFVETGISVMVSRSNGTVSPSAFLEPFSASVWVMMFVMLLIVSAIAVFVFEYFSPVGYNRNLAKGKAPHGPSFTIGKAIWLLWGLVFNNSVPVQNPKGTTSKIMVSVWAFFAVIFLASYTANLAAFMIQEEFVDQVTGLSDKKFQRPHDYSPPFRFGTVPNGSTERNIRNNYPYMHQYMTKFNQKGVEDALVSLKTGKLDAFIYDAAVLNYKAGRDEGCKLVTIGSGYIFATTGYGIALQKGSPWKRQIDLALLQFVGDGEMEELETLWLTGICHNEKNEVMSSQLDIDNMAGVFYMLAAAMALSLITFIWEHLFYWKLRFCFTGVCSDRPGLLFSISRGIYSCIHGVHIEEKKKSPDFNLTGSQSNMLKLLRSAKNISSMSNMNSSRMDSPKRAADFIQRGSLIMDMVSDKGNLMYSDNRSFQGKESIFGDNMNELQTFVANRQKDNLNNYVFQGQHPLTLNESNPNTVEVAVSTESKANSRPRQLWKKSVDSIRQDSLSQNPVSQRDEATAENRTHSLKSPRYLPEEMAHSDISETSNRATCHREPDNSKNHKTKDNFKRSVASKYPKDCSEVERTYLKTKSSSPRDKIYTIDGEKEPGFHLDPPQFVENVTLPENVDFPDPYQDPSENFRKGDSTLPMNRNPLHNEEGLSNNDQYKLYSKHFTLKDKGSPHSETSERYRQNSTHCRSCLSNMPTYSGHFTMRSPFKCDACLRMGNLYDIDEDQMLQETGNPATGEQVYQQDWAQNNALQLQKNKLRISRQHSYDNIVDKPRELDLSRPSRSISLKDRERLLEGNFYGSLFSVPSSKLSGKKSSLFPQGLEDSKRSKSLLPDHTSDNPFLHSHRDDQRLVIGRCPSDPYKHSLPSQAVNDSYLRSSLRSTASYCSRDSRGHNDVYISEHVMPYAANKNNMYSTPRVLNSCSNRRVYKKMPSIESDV
Sequence of NR1/NR2D (O15399 28-1336, other chains not shown): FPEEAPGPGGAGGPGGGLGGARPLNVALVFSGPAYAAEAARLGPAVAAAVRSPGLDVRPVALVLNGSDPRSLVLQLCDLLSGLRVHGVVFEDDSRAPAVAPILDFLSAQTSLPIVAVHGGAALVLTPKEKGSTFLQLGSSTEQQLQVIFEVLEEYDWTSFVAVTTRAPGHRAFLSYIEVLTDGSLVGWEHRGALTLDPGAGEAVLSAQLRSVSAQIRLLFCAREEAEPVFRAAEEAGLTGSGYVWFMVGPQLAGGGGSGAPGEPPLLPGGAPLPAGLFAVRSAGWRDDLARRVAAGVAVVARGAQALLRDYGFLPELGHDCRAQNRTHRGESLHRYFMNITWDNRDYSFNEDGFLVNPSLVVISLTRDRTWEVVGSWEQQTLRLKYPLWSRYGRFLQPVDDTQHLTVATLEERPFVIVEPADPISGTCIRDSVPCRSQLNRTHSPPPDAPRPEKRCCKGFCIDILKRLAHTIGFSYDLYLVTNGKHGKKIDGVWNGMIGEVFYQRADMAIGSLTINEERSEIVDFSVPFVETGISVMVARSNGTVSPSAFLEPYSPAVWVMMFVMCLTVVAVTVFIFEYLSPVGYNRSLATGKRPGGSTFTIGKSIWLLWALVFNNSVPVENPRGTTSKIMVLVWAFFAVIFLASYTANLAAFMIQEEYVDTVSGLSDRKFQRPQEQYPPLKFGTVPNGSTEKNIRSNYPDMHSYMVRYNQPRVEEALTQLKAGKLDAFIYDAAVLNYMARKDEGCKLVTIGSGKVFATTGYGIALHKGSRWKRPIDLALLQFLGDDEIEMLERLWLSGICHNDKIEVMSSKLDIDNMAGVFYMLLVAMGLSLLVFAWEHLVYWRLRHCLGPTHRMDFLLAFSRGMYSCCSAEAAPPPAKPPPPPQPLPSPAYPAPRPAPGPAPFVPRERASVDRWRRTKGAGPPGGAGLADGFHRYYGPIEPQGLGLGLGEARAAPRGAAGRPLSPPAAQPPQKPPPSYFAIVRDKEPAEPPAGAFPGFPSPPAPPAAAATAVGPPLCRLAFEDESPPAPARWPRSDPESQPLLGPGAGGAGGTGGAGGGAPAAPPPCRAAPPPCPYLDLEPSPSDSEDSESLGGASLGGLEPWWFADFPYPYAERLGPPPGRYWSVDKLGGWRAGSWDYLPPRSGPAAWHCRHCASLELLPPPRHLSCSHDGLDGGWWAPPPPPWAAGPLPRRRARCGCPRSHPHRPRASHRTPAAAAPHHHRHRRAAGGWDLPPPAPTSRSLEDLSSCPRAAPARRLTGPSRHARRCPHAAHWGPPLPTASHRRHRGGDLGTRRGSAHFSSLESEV
Sequence of NR1/NR2B (Q13224 27-1484, other chains not shown): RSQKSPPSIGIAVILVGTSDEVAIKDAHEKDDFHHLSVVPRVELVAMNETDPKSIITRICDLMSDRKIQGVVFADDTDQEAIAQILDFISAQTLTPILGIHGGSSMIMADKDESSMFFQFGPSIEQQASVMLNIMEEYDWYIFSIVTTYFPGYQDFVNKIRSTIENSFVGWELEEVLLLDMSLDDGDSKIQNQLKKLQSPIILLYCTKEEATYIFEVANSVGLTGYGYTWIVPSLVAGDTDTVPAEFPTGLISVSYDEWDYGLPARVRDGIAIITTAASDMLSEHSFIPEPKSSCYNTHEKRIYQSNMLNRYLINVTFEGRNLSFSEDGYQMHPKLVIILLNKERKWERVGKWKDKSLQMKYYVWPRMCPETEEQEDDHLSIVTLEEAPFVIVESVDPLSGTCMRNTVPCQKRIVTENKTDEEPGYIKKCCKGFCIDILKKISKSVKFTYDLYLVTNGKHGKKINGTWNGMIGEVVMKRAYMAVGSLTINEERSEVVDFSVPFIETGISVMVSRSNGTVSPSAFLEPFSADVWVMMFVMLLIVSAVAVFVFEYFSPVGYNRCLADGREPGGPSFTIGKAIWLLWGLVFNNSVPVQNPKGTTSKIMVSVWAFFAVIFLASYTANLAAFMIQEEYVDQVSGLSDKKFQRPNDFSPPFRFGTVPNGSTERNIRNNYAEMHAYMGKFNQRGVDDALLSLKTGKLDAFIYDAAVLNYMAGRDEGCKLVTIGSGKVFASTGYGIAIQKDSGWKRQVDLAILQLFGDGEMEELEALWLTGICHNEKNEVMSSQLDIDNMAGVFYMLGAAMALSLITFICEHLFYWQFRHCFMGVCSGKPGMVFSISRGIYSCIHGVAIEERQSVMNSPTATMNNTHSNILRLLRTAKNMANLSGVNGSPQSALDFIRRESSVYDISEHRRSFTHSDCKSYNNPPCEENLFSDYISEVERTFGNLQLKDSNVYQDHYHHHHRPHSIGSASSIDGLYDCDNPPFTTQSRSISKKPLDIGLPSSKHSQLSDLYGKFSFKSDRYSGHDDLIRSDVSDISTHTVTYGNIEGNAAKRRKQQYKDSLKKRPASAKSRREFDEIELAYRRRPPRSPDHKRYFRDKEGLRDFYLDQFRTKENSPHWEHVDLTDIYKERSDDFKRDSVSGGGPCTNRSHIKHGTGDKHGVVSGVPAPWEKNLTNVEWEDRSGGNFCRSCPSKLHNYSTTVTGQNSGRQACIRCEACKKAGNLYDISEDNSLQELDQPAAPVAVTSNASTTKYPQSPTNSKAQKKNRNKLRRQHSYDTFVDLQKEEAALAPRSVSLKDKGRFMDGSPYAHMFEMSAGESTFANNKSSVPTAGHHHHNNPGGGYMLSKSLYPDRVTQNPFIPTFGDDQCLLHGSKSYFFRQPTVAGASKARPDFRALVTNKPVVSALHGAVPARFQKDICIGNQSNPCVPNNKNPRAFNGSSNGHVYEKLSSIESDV

Structure (SMILES) | voltage dependence of channel blocking activity (NR1/NR2A) | IC50 (NR1/NR2A; [1]) [nM] | IC50 (NR1/NR2A) [nM] | IC50 (Cytotoxicity) [µM] | also measured
CC12CC3CC(C)(C1)CC(N)(C3)C2 [memantine, reference compound] |  |  |  | 147 | 
NCCCCNCCCCNCCCCNC(=O)c1ccc2c(c1)C(=O)c1ccccc1C2=O [AQ444, Anthraquinone Homospermine] | showed voltage dependence |  | 470 |  | channel blocking activity on mutant (NR2B mutant N616Q): significantly decreased channel blocking activity; channel blocking activity on mutant (NR2B mutant N615Q): significantly decreased channel blocking activity; order of intensity in channel blocking activity among subtypes (NR1/NR2A; NR1/NR2A, AQ444 0.1 to 30 μM, FIG. 2): NR1/NR2A=NR1/NR2B=NR1/NR2D>>NR1/NR2C; order of intensity in channel blocking activity among subtypes (NR1/NR2C): NR1/NR2A=NR1/NR2B=NR1/NR2D>>NR1/NR2C; order of intensity in channel blocking activity among subtypes (NR1/NR2B): NR1/NR2A=NR1/NR2B=NR1/NR2D>>NR1/NR2C; channel blocking activity on mutant (NR1 mutant N616Q): significantly decreased channel blocking activity; channel blocking activity on mutant (NR1 mutant N616R): significantly decreased channel blocking activity; order of intensity in channel blocking activity among subtypes (NR1/NR2D): NR1/NR2A=NR1/NR2B=NR1/NR2D>>NR1/NR2C
NCCCNCCCCNCCCNC(=O)n1c2ccccc2c2ccccc21 [carbazole spermine, Carbazole Spermine] |  |  | 15000 |  | 

Now from value to molecule, other results behind:

voltage dependence of channel blocking activity (NR1/NR2A) | IC50 (NR1/NR2A; [1]) [nM] | IC50 (NR1/NR2A) [nM] | Structure (SMILES) | IC50 (Cytotoxicity) [µM] | also measured
in a voltage-dependent manner | 240 |  | NCCCCNCCCCNCCCCNC(=O)N1c2ccccc2C=Cc2ccccc21 [DBA444, Dibenzoazepine Homospermine] | 132 | 
in a voltage-dependent manner | 72 |  | NCCCCNCCCCNCCCCNC(=O)N1c2ccccc2CCc2ccccc21 [DDBA444, Dihydrodibenzoazepine Homospermine] | 133 | 
